Measured values reported in patent US7135305B2, “Methods for controlling the lysis of coagulated blood with apolipoprotein e4 phenotype” (priority 2000, dated 2006).

What was measured:
[1] = tested on: t-PA stimulated clot lysis in fresh human blood; test: in vitro clot lysis measured by the amount of liquid liberated from the blood sample (Example 1); settings: FIG. 2; individual B's blood; t-PA alone 0.5 mg/l blood; N=3
Source text: There are various methods for determining the function, action and or kinetics of t-PA. These include but are not limited to: measuring fibrin degradation fragments, clot lysis, clot weight, fluid evolution weight, clot times and others. Those experienced in the art will be familiar with these and other methods for assaying t-PA activity or clot degradation/formation etc. The data from this study consists of a measurement of clot dissolution or lysis by measuring the amount of liquid liberated from the blood sample. This is an index of clot lysis and the clot lysis is stimulated by t-PA.
Typically, two mls of fresh human blood are drawn and added to pre-weighed vials containing known amounts of t-PA with or without Apo E4. The blood is mixed and allowed to equilibrate for 40 minutes. The vials are centrifuged at 1 g for 15 minutes and the supernatant decanted. Clot weight and solution weight is determined and used to measure clot degradation or dissolution. Increasing supernatant volumes indicate increased clot degradation or increasing clot dissolution.

[2] = tested on: t-PA induced clot lysis; test: in vitro clot assay system, t-PA induced clot lysis with supplemental Apo E isoproteins (Example 3); parameters: species or system human; settings: FIG. 4; t-PA 0 to 4 μg/ml, alone or with supplemental Apo E 9.8 μg/ml; blood of 18 volunteers
Procedure: The ability of Apo E isoproteins to modulate t-PA induced clot lysis is assessed using an in vitro clot assay system. This system uses the decrease in clot formation in the presence of t-PA to approximate the amount of clot lysis. Blood samples are obtained from 18 volunteers and divided into three Apo E genotypes (6 patients in each group): E2 (E2/E2, E2/E3, E2/E4), E3 (E3/E3) and E4 (E3/E4, E4/E4). Clot lysis in the presence of varying concentrations of t-PA (0 to 4 μg/ml), is assessed in the presence or absence of supplemental Apo E2, E3 or E4 (9.8 μg/ml) for each patient genotype. The results are expressed as EC50s, which are the effective concentrations of t-PA required to achieve 50% lysis of the clot.

- EC50, effective concentration of t-PA required to achieve 50% lysis of the clot [2]: 0.72 ± 0.19 µg/mL
Substance: t-PA: tissue plasminogen activator, clot lysis agent
- level of clot lysis [1]: 2.5 g
